Results reported in article PMC9401491, “The Novel Nucleoside Analogue ProTide NUC-7738 Overcomes Cancer Resistance Mechanisms In Vitro and in a First-In-Human Phase I Clinical Trial” (Clinical Cancer Research, 2021).
Where two headings read alike, the source gives them in different places.

Columns and labels:
CAKI-1 = assay: MTT cell viability, CAKI-1; format: cell-based; details: Homo sapiens, CAKI-1, 48 h
Protocol: (§1) Cells (10^4) were seeded into 96-well plates and then treated with NUC-7738 (lot 5132/E00393/119) or 3′-dA (cordycepin, catalog no. C3394, lot 067M4182, Sigma) for 48 hours. One and a half milligrams per milliliter MTT (catalog no. M6494, Invitrogen) in a 1:1 ratio was added to cell culture media. After a 2-hour incubation at 37°C, media was removed and 70 μl of isopropanol was added. Optical densities at 570 nm were measured using POLARstar Omega plate reader. Readouts were normalized and IC50 values were calculated using a nonlinear regression model in Graphpad prism (v8.3.0). Each biological replicate (at least 3) was performed in 4 technical replicates to calculate the average IC50 value. To measure apoptosis, the Guava NexinReagent (Luminex Corp.) was used following manufacturer's instructions. Fluorescence staining was measured with an automated 96-well Guava easyCyte Flow Cytometer (Luminex Corp.).

HAP1 cells = assay: HAP1 viability with ADA, hENT1 or ADK inhibitors; format: cell-based, human; details: HAP1, EHNA, NBTI, A134974
Protocol: as §1
To assess whether NUC-7738 was resistant to ADA and could bypass ADK and hENT1 (SLC29A1), cell viability was measured after treatment with their specific and corresponding protein inhibitors: erythro-9-(2-Hydroxy-3-nonyl) adenine hydrochloride (EHNA), A134974, and S-(4-nitrobenzyl)-6-thioinosine (NBTI), respectively ([16, 17, 34, 35]).

[1] = NuTide:701 first-in-human phase I study; format: in vivo
Protocol: A Safety Study of NUC-7738 in Patients with Advanced Solid Tumours or Lymphoma, ClinicalTrials number: NCT03829254. Approved by Oxford C Ethics Committee ref 18/SC/0628.
This study is currently ongoing at three centers in the United Kingdom: Edinburgh, Newcastle, and Oxford. As of June 1, 2021, 28 patients with advanced cancers have been enrolled and received escalating doses of 14–900 mg/m^2 (intravenous infusion from 30–120 minutes) once weekly until dose-limiting toxicity or disease progression occurs. Intrapatient dose escalation ensures those starting at lower dose levels of NUC-7738 are continuously moved to higher doses once safety has been established. The most common cancers to be included are immunotherapy-resistant melanoma (n = 8), colorectal cancer (n = 3), and gastric and lung cancer (n = 2 each). […] A posttreatment biopsy was taken from a patient with melanoma and compared with their archived specimen collected prior to enrolling in the clinical trial. […] Transcriptional profiling of the specimens using RNA-seq identified more than 1,069 genes which were at least 2-fold differentially expressed after treatment with NUC-7738 (Fig. 6C and Supplementary Fig. S6A–C).

[2] = tested on: human ccRCC tissue slices; assay: Ex vivo tissue slice culture of clear cell renal carcinoma; format: cell-based; details: 0, 5 and 25 μmol/L, 24 hours
Text: A fresh sample of clear cell renal carcinoma (ccRCC) was placed in formalin to serve as a formalin control for our experiment. The sample was transported in precooled 199 medium (catalog no. 2154) supplemented with penicillin/streptomycin (1%), Normocin (0.2%), and Glutamax (2 mmol/L). The tissue sample was embedded in low-melting point agarose gel and sliced into 250-μm sections using a Vibratome VT1000S (Leica Biosystems). Tissue slices were put immediately into media (199 medium supplemented with 10% FBS, 2 mmol/L Glutamax, and 1% penicillin/streptomycin) containing different concentrations of NUC-7738 (0, 5, and 25 μmol/L) and incubated for 24 hours at 37°C. Treated tissue sections were then fixed using PFA for 1 hour at room temperature and stored in PBS at 4°C. The treated slices were later embedded in paraffin and subsequently sliced into 3-μm sections using a microtome. The sections were placed on slides and baked overnight at 40°C. Sections were dewaxed using xylene and rehydrated in a graded alcohol series followed by tap water. […]
Immunofluorescence staining was performed using BOND RX. NF-κB p65 (catalog no. 4764, CST) and cleaved caspase-3 (catalog no. 9661, CST) were detected with HRP-conjugated secondary antibody and visualized using tyramide-fluorophore conjugates (TSA Cy5 for both). […]

[3] = set-up: method as in earlier work; details: patients, particularly immunotherapy-resistant melanoma; cited from earlier work
UM-RC-2 = assay: IC50 in renal cancer cell line UM-RC-2; format: cell-based; details: UMRC2
cancer cell lines = assay: IC50 across a wide set of cancer cell lines; format: cell-based
Protocol: as §1

A498 = assay: MTT cell viability, A498; format: cell-based; details: Homo sapiens, A498, 48 h
Protocol: as §1

[4] = set-up: method as in PMID 22833171, PMID 24419340; details: human serum; cited from earlier work
NCI-786 = assay: MTT cell viability, NCI-786; format: cell-based; details: 48 h
Protocol: as §1

In the case of `C[C@H](NP(=O)(OC[C@@H]1C[C@@H](O)[C@H](n2cnc3c(N)ncnc32)O1)Oc1ccccc1)C(=O)OCc1ccccc1` (stereo partly drawn) [NUC-7738, 3′-deoxyadenosine-5′-O-phenyl-(benzyloxy-L-alaninyl)-phosphate], the IC50 (CAKI-1) is reported as 33 µM, the “potency upon inhibition of ADA, hENT1 or ADK” value (HAP1 cells) is reported as “mostly unaffected” and the tolerability ([1]; patients with advanced cancers, 14–900 mg/m^2 iv once weekly) is reported as “well tolerated with no dose-limiting toxicities reported”. For the same compound, the “plasma PK profile” value ([1]; patients, escalating doses) was “dose-proportional increase in Cmax and AUC”, the “nuclear p65 and tumor-cell apoptosis” value [2] was “dose-dependent decrease in nuclear p65 and an increase in tumor-cell apoptosis” and the antitumor activity [3] was “Encouraging signals of antitumor activity and prolonged disease stabilization”. For the same compound, the IC50 (UM-RC-2) was 4 µM, the IC50 (cancer cell lines; read-out: IC50 in the low μM range) was under 10 µM and the IC50 (cancer cell lines; read-out: mean IC50) was 18.8 µM. The IC50 (A498) was 48.5 µM, the half-life in serum [4] was 7.07 h and the IC50 (NCI-786) was 49.5 µM.
